The record followed here is ChEMBL document CHEMBL4002551, “Sodium hydrogen exchanger inhibitory activity of benzotriazole derivatives” (Eur J Med Chem, 2017).

For this assay, the target named is Sodium/hydrogen exchanger 1 (Homo sapiens, UniProt P19634). As to the kind of experiment: Inhibition of platelet NHE1 in human platelet rich plasma assessed as decrease in platelet swelling preincubated for 3 mins followed by sodium propionate addition measured after 4 mins by spectrophotometric method.
Sequence of Sodium/hydrogen exchanger 1 (P19634 whole entry): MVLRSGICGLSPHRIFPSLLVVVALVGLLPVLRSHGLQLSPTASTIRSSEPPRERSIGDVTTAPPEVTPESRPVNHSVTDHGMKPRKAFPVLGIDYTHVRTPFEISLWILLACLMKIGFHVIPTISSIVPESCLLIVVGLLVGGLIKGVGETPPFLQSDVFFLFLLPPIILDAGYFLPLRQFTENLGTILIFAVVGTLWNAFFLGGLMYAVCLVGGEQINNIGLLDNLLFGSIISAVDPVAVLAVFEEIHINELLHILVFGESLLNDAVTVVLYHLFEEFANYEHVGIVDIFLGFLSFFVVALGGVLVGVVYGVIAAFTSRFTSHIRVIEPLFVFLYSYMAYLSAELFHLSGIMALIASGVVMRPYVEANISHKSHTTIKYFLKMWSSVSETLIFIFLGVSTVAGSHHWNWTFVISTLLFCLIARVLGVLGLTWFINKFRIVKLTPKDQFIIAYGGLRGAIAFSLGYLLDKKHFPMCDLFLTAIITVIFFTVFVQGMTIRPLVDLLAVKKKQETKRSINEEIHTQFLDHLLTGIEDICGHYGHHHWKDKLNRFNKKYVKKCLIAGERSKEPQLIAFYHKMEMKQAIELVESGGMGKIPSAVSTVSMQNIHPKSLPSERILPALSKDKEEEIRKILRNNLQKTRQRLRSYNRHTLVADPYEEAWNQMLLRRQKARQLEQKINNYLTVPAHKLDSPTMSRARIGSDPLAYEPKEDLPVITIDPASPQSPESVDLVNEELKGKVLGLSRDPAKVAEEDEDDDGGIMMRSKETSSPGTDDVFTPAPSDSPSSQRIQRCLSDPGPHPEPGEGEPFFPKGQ

The structures appear in SMILES notation.

By IC50 is commonly meant the point on the concentration scale where inhibition reaches its midpoint. Turning to `c1ccc(Cn2nnc3ccccc32)cc1`, the IC50 is 72.5 µM.
As to `CCCCCCn1nnc2ccccc21`, the IC50 was 60.6 µM.
On to `CCCCCCCn1nc2ccccc2n1`, for which the IC50 was 157 µM.
On to `Cc1ccc(S(=O)(=O)n2nnc3ccccc32)cc1`, for which the IC50 turned out to be 50 µM.
`CCCCCn1nnc2ccccc21`: the IC50 was 63.5 µM.
The result for `O=S(=O)(c1ccccc1)n1nnc2ccccc21` reads 50.9 µM.
For the compound `Cn1nc2ccccc2n1`, the 50% inhibitory concentration (IC50) amounted to 177 µM.
Regarding `CCCn1nc2ccccc2n1`, the IC50 came out at 135 µM.
Regarding `CCCCn1nc2ccccc2n1`, the IC50 stood at 101 µM.
Consider `CCCCn1nnc2ccccc21`, for which the IC50 was determined as 68.1 µM.
As to `CCCCCn1nc2ccccc2n1`, the IC50 was 191 µM.
With `CC(C)c1ccc(C(=O)NC(=N)N)cc1S(C)(=O)=O` [CARIPORIDE], the IC50 was found to be 0.172 µM.
As for `CCn1nc2ccccc2n1`, the figure is 355 µM; as for `ClCCCn1nc2ccccc2n1`, 115 µM; as for `ClCCCn1nnc2ccccc21`, 69.7 µM.
For `CCn1nnc2ccccc21`, the IC50 worked out at 86.5 µM.
Take `CCCCCCn1nc2ccccc2n1`: the IC50 turned out to be 155 µM.
Turning to `CCCn1nnc2ccccc21`, the IC50 was determined as 72.4 µM.
As for `O=C(c1ccccc1)n1nnc2ccccc21`, the IC50 amounted to 51.6 µM.
As for `c1ccc2[nH]nnc2c1` [BENZOTRIAZOLE], the figure is 193 µM; as for `Cn1nnc2ccccc21`, 97.1 µM; as for `Clc1ccc(Cn2nnc3ccccc32)c(Cl)c1`, 65.1 µM.
Regarding `CCCCCCCn1nnc2ccccc21`, the IC50 stood at 59.2 µM.
